US20250268910A1 (priority 2022, published 2025)

What was measured:
[1] = tested on: citric acid-induced cough in guinea pigs; test: In vivo citric acid-induced cough in guinea pigs (whole body plethysmograph); conditions: for cough incubation period: p<0.05 vs saline control (232 seconds)
Procedure: As depicted in FIG. 1, cough induction is conducted by placing guinea pigs into a whole body plethysmograph (WBP) equipped with a Aeroneb™ vibrating mesh nebulizer, and including pressure transducers and detection equipment (EMKA technologies). A primary microphone is supplied (EMKA Technologies) for acoustic confirmation of cough frequency in the form of a digital trace using the EMKA software.
A secondary microphone (T1 True Wireless Earphone, QCY®) also is placed in the chamber and connected to a smartphone via Bluetooth to enable the observers to hear the audible sounds during the test. A bias flow rate of 2 L/min is used to continuously draw either atmospheric air (during the fresh air period) or aerosolized citric acid from the nebulizer into the WBP and expel it out through an exhaust pipe. Chamber pressure in the WBP is set to be between −10 to −30 Pa relative to ambient pressure.
Prior to the citric acid challenge, the guinea pigs are administered (intraperitoneal injection) with vehicle control, positive control or test compound (where applicable) with different dosage (Table 2) and placed individually into the WBP for at least 5 minutes in order to habituate.
The procedure was as follows: Injection→mice in box having citric acid for 10 mins (counting the cough)→box then fill with air for 5 mins (counting the cough)→mice move to recovery cage.
Appropriate concentration of citric acid is used to generate aerosol and deliver to WBP for 10 minutes with constant recording of pressure measurements. The mean concentration of citric acid was 1283.1±137.2 μg/L. Upon completion of citric acid challenge, the guinea pig is allowed to recover and continue recording of cough counts for another 5 minutes. Subsequently, the guinea pigs are closely monitored in recovery cage for full recovery from the challenge and that no adverse events were present before returning the animals to its home cage. Cough counts (CCnt) are recorded over a period of at least 10 mins, starting from citric acid stimulation and cough incubation period (CIP) are defined as the time it takes to cough for the first time after citric acid stimulation.
The cough response during citric acid challenge and post-treatment recovery is carefully monitored using: • continuous pressure monitoring (plethysmography monitoring software) • acoustic confirmation of cough using microphones (primary and secondary) • visual confirmation of cough through posture change.
The data were analysed using Oneway ANOVA (*p<0.05, **p<0.01, ***p<0.001, ****p<0.0001) when compared to saline control, and each column represents Mean±SEM.

[2] = molecular target: T1, human α7 nAChR subtype (Homo sapiens, UniProt P36544); test: biochemical; type: binding
T1 construct: expressed in transfected cells; host or cells: SH-SY5Y cells (membranes)
T1 sequence (P36544 23-502): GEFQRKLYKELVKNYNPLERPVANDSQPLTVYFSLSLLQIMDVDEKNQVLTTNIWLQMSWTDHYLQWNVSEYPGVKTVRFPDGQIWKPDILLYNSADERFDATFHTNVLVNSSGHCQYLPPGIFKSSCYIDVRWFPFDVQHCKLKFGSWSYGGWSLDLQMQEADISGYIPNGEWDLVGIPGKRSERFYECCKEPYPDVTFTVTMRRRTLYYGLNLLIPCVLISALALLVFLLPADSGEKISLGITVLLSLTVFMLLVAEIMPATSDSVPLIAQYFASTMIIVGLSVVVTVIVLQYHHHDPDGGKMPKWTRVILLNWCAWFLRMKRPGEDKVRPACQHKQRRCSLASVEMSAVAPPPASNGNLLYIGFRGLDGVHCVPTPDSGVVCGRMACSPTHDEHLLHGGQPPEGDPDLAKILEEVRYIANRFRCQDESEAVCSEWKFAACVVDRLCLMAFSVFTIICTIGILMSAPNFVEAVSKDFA

Compound | citric acid-induced cough counts (number of coughs) ([1]; high concentration 15 mg/kg intraperitoneal, p<0.05 vs saline control (13 coughs)) | cough incubation period ([1]; high concentration 15 mg/kg intraperitoneal) [s] | citric acid-induced cough counts (number of coughs) ([1]; low concentration 1.5 mg/kg intraperitoneal, p<0.0001 vs saline control (13 coughs)) | cough incubation period ([1]; low concentration 1.5 mg/kg intraperitoneal) [s] | citric acid-induced cough counts (number of coughs) ([1]; medium concentration 5 mg/kg intraperitoneal, p<0.05 vs saline control (13 coughs)) | Ki [2] [nM]
C1=C(c2ccc(-c3ccccc3)nc2)C2CCN(C1)CC2 [4-(6-Phenyl-3-pyridyl)-1-azabicyclo[3.2.2]non-3-ene] | 7 | 491 | 3 | 504 | 6 | 130
C1=C(c2ccc(-c3ccccc3)nn2)C2CCN(C1)CC2 [4-(6-Phenylpyridazin-3-yl)-1-azabicyclo[3.2.2]non-3-ene] |  |  |  |  |  | 320
